Where two headings read alike, the source gives them in different places.
Biological target: T1, DGAT1 (Homo sapiens, UniProt O75907)
T1 sequence (O75907 1-488): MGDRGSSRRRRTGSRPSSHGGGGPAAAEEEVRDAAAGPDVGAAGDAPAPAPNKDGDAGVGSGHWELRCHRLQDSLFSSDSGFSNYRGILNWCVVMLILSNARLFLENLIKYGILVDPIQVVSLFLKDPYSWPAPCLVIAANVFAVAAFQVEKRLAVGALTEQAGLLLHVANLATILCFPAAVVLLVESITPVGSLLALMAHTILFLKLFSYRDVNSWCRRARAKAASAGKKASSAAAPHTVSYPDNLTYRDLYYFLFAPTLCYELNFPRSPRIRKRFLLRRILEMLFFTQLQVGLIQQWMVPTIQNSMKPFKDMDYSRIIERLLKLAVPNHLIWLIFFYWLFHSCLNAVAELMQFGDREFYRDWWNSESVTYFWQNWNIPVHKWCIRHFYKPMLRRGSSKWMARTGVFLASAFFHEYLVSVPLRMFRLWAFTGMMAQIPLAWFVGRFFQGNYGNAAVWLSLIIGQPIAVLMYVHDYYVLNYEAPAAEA
Test: Human DGAT1 IC50 enzyme assay (Flashplate, 14C-labeled acyl-CoA)
Type: biochemical
Parameters: made in house
Protocol: The ability of compounds to inhibit DGAT enzyme activity is determined by calculating IC50 values of test compounds. Ki values of DGAT1 are calculated as follows: Cheng-Prusoff equation: Ki=IC50/(1+[S]/Km)
(1) Human DGAT1 IC50 (nM) Experiment
Human DGAT1 activity was determined as follows:
Expressing human DGAT1 enzyme, used diacylglycerol and 14C-labeled acyl-CoA as the substrate, choose PE Company Flashplate testing board to build DGAT1 enzyme reaction system. 14C-labeled acyl-CoA binds to diacylglycerol by covalent bonding after enzymology reaction, and generates the product of 14C-labeled triglyceride. 14C-labeled acyl-CoA substrate is dissolved in reaction solution and 14C-labeled triglyceride product combine with phospholipids of Flashplate plate bottom layer, thus effectively separate labeled substrates and products. The radioactive of 14C-labeled triglyceride which is combined with phospholipid layer is counted, and the potencies of DGAT-1 inhibition for the compounds are determined by calculating the IC50 values.

[1] = average of first and second, read-out: hDGAT1 IC50(nM) Average
[2] = first determination, read-out: hDGAT1 IC50(nM) First
[3] = second determination, read-out: hDGAT1 IC50(nM) Second

Compound	IC50 [1]	IC50 [2]	IC50 [3]
CC(C)(O)Cn1cc(-c2ccc(N3CCOc4ncnc(N)c4C3=O)cc2Cl)cn1 [Compound 42, 4-amino-6-(3-chloro-4-(1-(2-hydroxy-2-methylpropyl)-1H-pyrazol-4-yl)phenyl)-7,8-dihydropyrimido[5,4-f][1,4]oxazepin-5(6H)-one]	59.6 nM	75 nM	44.2 nM
Cc1cc(N2CCOc3ncnc(N)c3C2=O)cc(C)c1-c1cn(CC(F)F)nc1C [Compound 43, 4-amino-6-(4-(1-(2,2-difluoroethyl)-3-methyl-1H-pyrazol-4-yl)-3,5-dimethylphenyl)-7,8-dihydropyrimido[5,4-f][1,4]oxazepin-5(6H)-one]	17.6 nM	18.5 nM	16.7 nM
CC(C)(CO)Cn1cc(-c2ccc(N3CCOc4ncnc(N)c4C3=O)cc2Cl)cn1 [Compound 44, 4-amino-6-(3-chloro-4-(1-(3-hydroxy-2,2-dimethylpropyl)-1H-pyrazol-4-yl)phenyl)-7,8-dihydropyrimido[5,4-f][1,4]oxazepin-5(6H)-one]	45 nM	59.5 nM	30.5 nM
CC(C)Cn1cc(-c2ccc(N3C[C@@H](C)Oc4ncnc(N)c4C3=O)cc2Cl)cn1 [Compound 45, (R)-4-amino-6-(3-chloro-4-(1-isobutyl-1H-pyrazol-4-yl)phenyl)-8-methyl-7,8-dihydropyrimido[5,4-f][1,4]oxazepin-5(6H)-one]	16 nM	17.4 nM	14.6 nM
NC(=O)Cn1cc(-c2ccc(N3CCOc4ncnc(N)c4C3=O)cc2Cl)cn1 [Compound 46, 2-(4-(4-(4-amino-5-oxo-7,8-dihydropyrimido[5,4-f][1,4]oxazepin-6(5H)-yl)-2-chlorophenyl)-1H-pyrazol-1-yl)acetamide]	95.6 nM	89 nM	102 nM
Cc1cc(N2CCOc3ncnc(N)c3C2=O)cc(C)c1-c1cn(CC2(C)COC2)nc1C [Compound 47, 4-amino-6-(3,5-dimethyl-4-(3-methyl-1-((3-methyloxetan-3-yl)methyl)-1H-pyrazol-4-yl)phenyl)-7,8-dihydropyrimido[5,4-f][1,4]oxazepin-5(6H)-one]	87 nM	65.4 nM	109 nM
Nc1ncnc2c1C(=O)N(c1ccc(-c3cnn(CC(=O)O)c3)c(Cl)c1)CCO2 [Compound 56, 2-(4-(4-(4-amino-5-oxo-7,8-dihydropyrimido [5,4-f][1,4]oxaxepin-6(5H)-yl)-2-chlorophenyl)-1H-pyrazol-1-yl)acetic acid]	51.8 nM	65.8 nM	37.7 nM
Cc1cc(N2CCOc3ncnc(N)c3C2=O)ccc1-c1cnn(CC(=O)O)c1 [Compound 57, 2-(4-(4-(4-amino-5-oxo-7,8-dihydropyrimido [5,4-f][1,4]oxazepin-6(5H)-yl)-2-methylphenyl)-1H-pyrazol-1-yl)acetic acid]	91.9 nM	81.3 nM	102 nM
Cc1cc(N2CCOc3ncnc(N)c3C2=O)ccc1-c1cnn(C(C(=O)O)C(C)C)c1 (stereo not drawn) [Compound 59, 2-(4-(4-(4-amino-5-oxo-7,8-dihydropyrimido [5,4-f][1,4]oxazepin-6(5H)-yl)-2-methylphenyl)-1H-pyrazol-1-yl)-3-methylbutanoic acid]	80.3 nM	54.9 nM	106 nM
CCC(C(=O)O)n1cc(-c2ccc(N3CCOc4ncnc(N)c4C3=O)cc2Cl)cn1 (stereo not drawn) [Compound 61, 2-(4-(4-(4-amino-5-oxo-7,8-dihydropyrimido [5,4-f][1,4]oxazepin-6(5H)-yl)-2-chlorophenyl)-1H-pyrazol-1-yl)butanoic acid]	37.8 nM	28.2 nM	47.4 nM
Nc1ncnc2c1C(=O)N(c1ccc(-c3cn(CCC(=O)O)nc3C(F)(F)F)cc1)CCO2 [Compound 62]	68.2 nM	57.9 nM	78.6 nM

Reference: patent US9809604B2, “DGAT1 inhibitor and preparation method and use thereof” (Qingdao Huanghai Pharmaceutical Co., Ltd., priority 2013, dated 2017)
